Reference: BigSolDB 2.1

NC(=O)CS(=O)C(c1ccccc1)c1ccccc1 (stereo not given)
Settings	solubility (mole fraction)
in 2-butanone, 281 K	0.00114
in 2-butanone, 304.7 K	0.00253
in 2-butanone, 307.3 K	0.00278
in 2-butanone, 314.1 K	0.00354
in 2-butanone, 317.8 K	0.00401
in 2-butanone, 319.6 K	0.00429
in 2-butanone, 329.4 K	0.0059
in 2-butanone, 332.8 K	0.00661
in DMF, 280.7 K	0.0552
in DMF, 283.3 K	0.0579
in DMF, 290.8 K	0.0656
in DMF, 293.6 K	0.0702
in DMF, 300.1 K	0.0784
in DMF, 311.5 K	0.0926
in DMF, 318 K	0.103
in DMF, 320.4 K	0.108
in acetone, 278.2 K	0.00141
in acetone, 284 K	0.00175
in acetone, 290.4 K	0.0021
in acetone, 294.1 K	0.00239
in acetone, 303.2 K	0.00321
in acetone, 307.5 K	0.00371
in acetone, 311.8 K	0.00426
in acetone, 320.2 K	0.0057
in acetonitrile, 286.3 K	0.000684
in acetonitrile, 293.1 K	0.000981
in acetonitrile, 297.9 K	0.00132
in acetonitrile, 301.4 K	0.00163
in acetonitrile, 304.4 K	0.00195
in acetonitrile, 311.1 K	0.00292
in acetonitrile, 322 K	0.00578
in acetonitrile, 326.4 K	0.00729
in ethanol, 280.6 K	0.000668
in ethanol, 285.2 K	0.000755
in ethanol, 288.4 K	0.000917
in ethanol, 294.2 K	0.00111
in ethanol, 304.2 K	0.00167
in ethanol, 313.7 K	0.00253
in ethanol, 322.8 K	0.00377
in ethanol, 330 K	0.00527
in ethyl acetate, 273.2 K	0.00046
in ethyl acetate, 288 K	0.000602
in ethyl acetate, 291.9 K	0.000709
in ethyl acetate, 298 K	0.000844
in ethyl acetate, 303.5 K	0.001
in ethyl acetate, 312.3 K	0.00141
in ethyl acetate, 322.2 K	0.002
in ethyl acetate, 328.3 K	0.00255
in isopropanol, 283.2 K	0.000603
in isopropanol, 287.9 K	0.00086
in isopropanol, 295.8 K	0.00106
in isopropanol, 299.8 K	0.00129
in isopropanol, 308.5 K	0.00193
in isopropanol, 317.6 K	0.00291
in isopropanol, 323.5 K	0.00388
in isopropanol, 331.5 K	0.00607
in methanol, 277.9 K	0.00189
in methanol, 289 K	0.0028
in methanol, 297.5 K	0.00394
in methanol, 301.8 K	0.00459
in methanol, 308.4 K	0.0059
in methanol, 314 K	0.00744
in methanol, 318.2 K	0.00891
in methanol, 319.7 K	0.00945
in n-propanol, 284.5 K	0.001
in n-propanol, 291.9 K	0.00131
in n-propanol, 299 K	0.00184
in n-propanol, 300.4 K	0.00195
in n-propanol, 314.3 K	0.00362
in n-propanol, 316.9 K	0.00411
in n-propanol, 319.9 K	0.00475
in n-propanol, 324.8 K	0.00585
in water, 290.7 K	5.4e-05
in water, 297.5 K	8.1e-05
in water, 300.5 K	8.8e-05
in water, 301.7 K	0.000103
in water, 309.5 K	0.00013
in water, 312.9 K	0.000177
in water, 320.8 K	0.000242
in water, 323.4 K	0.000281
